From US11825838B2, “Tricyclic carboxamides for controlling arthropods” (Bayer CropScience Aktiengesellschaft, priority 2017, dated 2023)

How the values were obtained:
Type in all cases: in vivo
[1] = test system: cattle ticks (Boophilus microplus) Parkhurst strain, SP-resistant; assay: Boophilus microplus dip test; details: application rate 100 ppm, assessed after 7 days by laying of fertile eggs
Description: Boophilus microplus—Dip Test
Test animals: cattle ticks (Boophilus microplus) Parkhurst strain, SP-resistant
(§1) Solvent: dimethyl sulfoxide
10 mg of active ingredient are dissolved in 0.5 ml of dimethyl sulfoxide. To produce a suitable formulation, the active ingredient solution is diluted with water to the concentration desired in each case. This active ingredient formulation is pipetted into tubes. 8-10 engorged adult female cattle ticks (Boophilus microplus) are transferred into a further tube with holes. The tube is immersed into the active ingredient formulation, and all the ticks are completely wetted. After the liquid has run out, the ticks are transferred on filter discs into plastic dishes and stored in a climate-controlled room.
Efficacy is assessed after 7 days by laying of fertile eggs. Eggs which are not visibly fertile are stored in a climate-controlled cabinet until the larvae hatch after about 42 days. An efficacy of 100% means that none of the ticks has laid any fertile eggs; 0% means that all the eggs are fertile.

Ctenocephalides felis = Ctenocephalides felis oral test; details: application rate 100 ppm in citrated cattle blood, after 2 days
Description: Ctenocephalides felis—Oral Test
as §1
To produce a suitable active ingredient formulation, 10 mg of active ingredient are mixed with 0.5 ml of dimethyl sulfoxide. Dilution with citrated cattle blood gives the desired concentration.
About 20 unfed adult cat fleas (Ctenocephalides felis) are placed into a chamber which is closed at the top and bottom with gauze. A metal cylinder whose bottom end is closed with parafilm is placed onto the chamber. The cylinder contains the blood/active ingredient formulation, which can be imbibed by the fleas through the parafilm membrane.
After 2 days, the rate of extermination in % is determined. 100% means that all of the fleas have been killed; 0% means that none of the fleas have been killed.

Myzus persicae = Myzus persicae oral test; details: application rate 4 ppm, after 5 days
Description: To produce a suitable active compound preparation, 1 part by weight of active compound is dissolved with the specified amounts by weight of solvent and made up to the desired concentration with water.
50 ul of the active compound preparation are transferred to microtiter plates and made up to a final volume of 200 μl with 150 μl of IPL41 insect medium (33%+15% sugar). Then the plates are sealed with parafilm through which a mixed population of the green peach aphid (Myzus persicae), which is located in a second microtiter plate, can pierce and absorb the solution.
After 5 days, the efficacy in % is determined. 100% means that all the aphids have been killed; 0% means that no aphids have been killed.

Phaedon cochleariae = Phaedon cochleariae spray test (PHAECO)
Description: Phaedon cochleariae—Spray Test
(§2) To produce a suitable active ingredient formulation, 1 part by weight of active ingredient is dissolved with the specified parts by weight of solvent and made up to the desired concentration with water containing an emulsifier concentration of 1000 ppm. To produce further test concentrations, the formulation is diluted with emulsifier-containing water.
After 7 days, the efficacy in % is determined. 100% means that all the beetle larvae have been killed; 0% means that no beetle larvae have been killed.
Phaedon cochleariae—Spray Test (PHAECO)
as §2, with “compound” for “ingredient”
Discs of Chinese cabbage leaves (Brassica pekinensis) are sprayed with an active compound formulation of the desired concentration and, after drying, populated with larvae of the mustard beetle (Phaedon cochleariae).
After the desired time, the efficacy in % is determined. 100% means that all the beetle larvae have been killed; 0% means that no beetle larvae have been killed.

[2] = test system: Anopheles gambiae strain RSPH (homozygot kdr); assay: Anopheles test (ANPHGB surface treatment); details: application rate 100 mg/m^2, glazed tile, exposure 30 minutes, 24 hours after contact, read-out: efficacy (mortality)
Description: Anopheles Test (ANPHGB Surface Treatment)
(§3) Solvent: acetone+2000 ppm rapeseed oil methyl ester (RME)
(§4) To produce a suitable active compound formulation, the active compound is dissolved in the solvent (2 mg/ml). The active compound formulation is pipetted onto a glazed tile and, after it has dried off, adult mosquitoes of the species Anopheles gambiae strain RSPH (homozygot kdr) are placed onto the treated tile. The exposure time is 30 minutes.
(§5) 24 hours after contact with the treated surface, mortality in % is determined. 100% means that all mosquitoes have been killed; 0% means that none of the mosquitoes have been killed.

[3] = test system: Anopheles funestus strain FUMOZ-R; assay: Anopheles test (ANPHFU surface treatment); details: application rate 100 mg/m^2, glazed tile, exposure 30 minutes, 24 hours after contact, read-out: efficacy (mortality)
Description: Anopheles Test (ANPHFU Surface Treatment)
as §3
as §4, with “funestus” for “gambiae”, “FUMOZ-R (Hunt et al., Med Vet Entomol. 2005 September; 19(3):271-5)” for “RSPH (homozygot kdr)”
as §5

[4] = test system: Aedes aegypti strain MONHEIM; assay: Aedes test (AEDSAE surface treatment); details: application rate 100 mg/m^2, glazed tile, exposure 30 minutes, 24 hours after contact, read-out: efficacy (mortality)
Description: Aedes Test (AEDSAE Surface Treatment)
as §3
as §4, with “Aedes aegypti” for “Anopheles gambiae”, “MONHEIM” for “RSPH (homozygot kdr)”
as §5

Row | Compound | efficacy [1] [%] | efficacy (rate of extermination) (Ctenocephalides felis) [%] | efficacy (Myzus persicae) [%] | efficacy (Phaedon cochleariae; application rate 100 g/ha, spray, after 7 days) [%] | Emax at 100 g/ha (Phaedon cochleariae; Phaedon cochleariae, 168 h, PHAECO, 100 g ai/ha, 7 dat, read-out: % efficacy dat) [%] | pest or weed control at 100 g/ha (Phaedon cochleariae; Phaedon cochleariae, 168 h, application rate 100 g/ha, spray, after 7 days, read-out: efficacy) [%] | mortality at 100 mg/m2 [2] [%] | mortality at 100 mg/m2 [3] [%] | mortality at 100 mg/m2 [4] [%]
1 | Cc1sc(-c2cnn(-c3c(Cl)cc(C(F)(C(F)(F)F)C(F)(F)F)cc3Cl)c2)cc1C(=O)NC1CC1 [I-T1-11] | 100 | 100 | 90 | 100 | – | – | – | – | –
2 | O=C(NC1CC1)c1cc(-c2cnn(-c3c(Cl)cc(C(F)(C(F)(F)F)C(F)(F)F)cc3Cl)c2)sc1Br [I-T1-1] | 100 | 100 | – | – | 100 | 100 | 80 to 100 | 80 to 100 | 80 to 100
